Results on one molecule are retold here after ChEMBL document CHEMBL1201862, “PubChem BioAssay data set” (2004).

Test systems include NCI-H460; DU-145; SK-MEL-2; SK-MEL-5; HOP-62; SNB-19; TK-10; RXF 393; Malme-3M; COLO 205; HCT-15; ACHN; OVCAR-3; SW-620; SK-OV-3; CAKI-1; K562; MDA-MB-435; NCI-H522; MDA-MB-231.
Assay in all cases: NCI anticancer screen, dose series, 48 h

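Results reflect a 48-hour exposure of cells in 96-well plates to compound at five concentrations. The concentration for 50% growth inhibition is given as GI50.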 Active and inactive are the calls of the source. No stated cut-off is given here; in the data, active = GI50 up to about 1.1 µM and inactive = higher.

For `Fc1ccc(Oc2nc3ccc(C(F)(F)F)cc3nc2-c2ccccc2)cc1`, the GI50 in the experiment on NCI-H460 is 66.2 µM (inactive); with DU-145, > 100 µM (inactive); in the experiment on SK-MEL-2, 60 µM (inactive); in the experiment on SK-MEL-5, 68.1 µM (inactive); with HOP-62, 24.4 µM (inactive); with SNB-19, 87.9 µM (inactive). Further, the GI50 in the experiment with TK-10 is 51.2 µM (inactive); in the experiment on RXF 393 it was 67.5 µM (inactive); in the experiment with Malme-3M, 38 µM (inactive); in the experiment with COLO 205, > 100 µM (inactive); in the experiment with HCT-15, over 100 µM; with ACHN, 44.8 µM (inactive). For the same molecule, the GI50 with OVCAR-3 is > 100 µM (inactive); with SW-620, > 10 µM (inactive); with SK-OV-3, 81.5 µM (inactive); with CAKI-1, 27.9 µM (inactive); with K562 it was > 10 µM (inactive); in the experiment on MDA-MB-435, 76.2 µM (inactive). The GI50 with NCI-H522 and in the experiment on MDA-MB-231 was > 100 µM (inactive) in each case.
